Our source for the IC50 values is BindingDB's records for doi:10.1016/j.bmcl.2008.01.016 (Merck Research Laboratories, 2008).

The structures appear in SMILES notation.

The test can be described thus: Antagonist activity at human CCR2 assessed as inhibition of MCP1-induced monocyte chemotaxis.

Broadly, the IC50 is the midpoint of a concentration-inhibition curve. For `C[C@H]1CN([C@@H]2CC[C@@]3(CCO[C@H]3OCc3cc(F)cc(C(F)(F)F)c3)C2)CC[C@@]12C=Cc1ccccc12`, the IC50 came out at 2.5 nM.
